Laboratory results taken from US11608323B2 (SYNGENTA LIMITED, priority 2013, dated 2023).

Assays:
Assay type in all cases: in vivo
SETFA [1] = assay: Post-emergence herbicidal activity, glasshouse pot test; settings: Setaria faberi; application post-emergence; rate 1000 g/Ha; evaluated after 13 days
In short: (§1)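 Seeds were sown in standard soil and cultivated for 8 days under controlled glasshouse conditions. Seedlings were then sprayed with an aqueous solution of the formulated compound containing 0.5% Tween 20. Injury was rated after a further 13 days, where 5 indicated total damage.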

ECHCG [2] = assay: as above; settings: Echinochloa crus-galli; application post-emergence; rate 1000 g/Ha; evaluated after 13 days
In short: as §1

ZEAMX [3] = assay: as above; settings: Zea mays; application post-emergence; rate 1000 g/Ha; evaluated after 13 days
In short: as §1

AMARE [4] = assay: as above; settings: Amaranthus retroflexus; application post-emergence; rate 1000 g/Ha; evaluated after 13 days
In short: as §1

ABUTH [5] = assay: as above; settings: Abutilon theophrasti; application post-emergence; rate 1000 g/Ha; evaluated after 13 days
In short: as §1

ALOMY [6] = assay: as above; settings: Alopecurus myosuroides; application post-emergence; rate 1000 g/Ha; evaluated after 13 days
In short: as §1

SETFA [7] = assay: Pre-emergence herbicidal activity, glasshouse pot test; settings: rate 1000 g/Ha, evaluated after 13 days, scale 0-5
In short: (§2)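 Compounds are applied pre-emergence as an aqueous spray, formulated in 50:50 acetone/water containing 0.5% Tween 20, to pots sown one day earlier. Plants grow in a controlled glasshouse and are scored 13 days later for damage from 0 to 5.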

ECHCG [8] = assay: as above; settings: rate 1000 g/Ha, evaluated after 13 days, scale 0-5
In short: as §2

ZEAMX [9] = assay: as above; settings: rate 1000 g/Ha, evaluated after 13 days, scale 0-5
In short: as §2

AMARE [10] = assay: as above; settings: rate 1000 g/Ha, evaluated after 13 days, scale 0-5
In short: as §2

ABUTH [11] = assay: as above; settings: rate 1000 g/Ha, evaluated after 13 days, scale 0-5
In short: as §2

ALOMY [12] = assay: as above; settings: rate 1000 g/Ha, evaluated after 13 days, scale 0-5
In short: as §2

Compound | Post-emergence herbicidal activity SETFA (damage score 0-5) (SETFA [1]) | Post-emergence herbicidal activity ECHCG (damage score 0-5) (ECHCG [2]) | Post-emergence herbicidal activity ZEAMX (damage score 0-5) (ZEAMX [3]) | Post-emergence herbicidal activity AMARE (damage score 0-5) (AMARE [4]) | Post-emergence herbicidal activity ABUTH (damage score 0-5) (ABUTH [5]) | Post-emergence herbicidal activity ALOMY (damage score 0-5) (ALOMY [6]) | SETFA damage score, application pre-emergence (SETFA [7]) | ECHCG damage score, application pre-emergence (ECHCG [8]) | ZEAMX damage score, application pre-emergence (ZEAMX [9]) | AMARE damage score, application pre-emergence (AMARE [10]) | ABUTH damage score, application pre-emergence (ABUTH [11]) | ALOMY damage score, application pre-emergence (ALOMY [12])
CON1C(=O)N(c2cc(C(F)(F)F)ccn2)C(O)[C@@H]1C (mixture of isomers) [Compound A3, (4R,5S)-4-hydroxy-1-methoxy-5-methyl-3-[4-(trifluoromethyl)-2-pyridyl]imidazolidin-2-one and (4S,5S)-4-hydroxy-1-methoxy-5-methyl-3-[4-(trifluoromethyl)-2-pyridyl]imidazolidin-2-one] | 5 | 5 | 5 | 5 | 5 | 5 | 5 | 5 | 3 | 5 | 4 | 3
CON1C(=O)N(c2cc(C(F)(F)F)ccn2)C(O)[C@H]1C (mixture of isomers) [Compound A4, (4R,5R)-4-hydroxy-1-methoxy-5-methyl-3-[4-(trifluoromethyl)-2-pyridyl]imidazolidin-2-one and (4S,5R)-4-hydroxy-1-methoxy-5-methyl-3-[4-(trifluoromethyl)-2-pyridyl]imidazolidin-2-one] | 5 | 5 | 5 | 5 | 5 | 5 | 5 | 5 | 3 | 5 | 5 | 4
C[C@H]1C(O)N(c2cc(C(F)(F)F)ccn2)C(=O)N1C (mixture of isomers) [Compound A37, (4R,5S)-4-hydroxy-1,5-dimethyl-3-[4-(trifluoromethyl)-2-pyridyl]imidazolidin-2-one and (4S,5S)-4-hydroxy-1,5-dimethyl-3-[4-(trifluoromethyl)-2-pyridyl]imidazolidin-2-one] | 5 | 5 | 4 | 5 | 5 | 5 | 4 | 5 | 3 | 5 | 5 | 4
CCOC1C(O)N(c2cc(C(F)(F)F)ccn2)C(=O)N1C (racemic) [Compound A6, 5-ethoxy-4-hydroxy-1-methyl-3-[4-(trifluoromethyl)-2-pyridyl]imidazolidin-2-one] | 5 | 5 | 2 | 5 | 5 | 5 | 5 | 4 | 2 | 5 | 5 | 4
COCC1C(O)N(c2cc(C(F)(F)F)ccn2)C(=O)N1C (racemic) [Compound A54] | 5 | 5 | 4 | 5 | 5 | 5 | 2 | 2 | 0 | 5 | 5 | 3
CC1C(O)N(c2ccc(Cl)cn2)C(=O)N1C (single isomer, unassigned) [Compound A26] | 1 | 1 | 1 | 3 | 4 | 1 | 4 | 4 | 2 | 3 | 4 | 2
Cc1ccnc(N2C(=O)N(C)C(C)C2O)c1 (single isomer, unassigned) [Compound A27] | 3 | 3 | 3 | 5 | 5 | 3 | 4 | 4 | 3 | 5 | 4 | 3
CCC1C(O)N(c2cc(C(F)(F)F)ccn2)C(=O)N1OC (single isomer, unassigned) [Compound A28] | 5 | 5 | 2 | 4 | 4 | 5 | 5 | 4 | 2 | 5 | 3 | 4
COC1C(O)N(c2cc(C(F)(F)F)c(-c3cncnc3)cn2)C(=O)N1C (stereo not shown) [Compound A15] | 4 | 4 | 0 | 5 | 5 | 4 | 4 | 3 |  | 5 |  | 3
CCOC1C(O)N(c2cc(C(F)(F)F)c(I)cn2)C(=O)N1C (stereo not shown) [Compound A16] | 5 | 5 | 2 | 5 | 5 | 5 | 4 | 5 |  | 5 |  | 4
CN1C(=O)N(c2cc(C(F)(F)F)c(I)cn2)C(O)C1O (stereo not shown) [Compound A17] | 5 | 5 | 4 | 5 | 5 | 5 | 3 | 4 |  | 5 |  | 3
COC1C(O)N(c2cc(C(F)(F)F)c(I)cn2)C(=O)N1C (stereo not shown) [Compound A18] | 5 | 5 | 3 | 5 | 5 | 5 | 4 | 5 |  | 5 |  | 4
